target: 5-hydroxytryptamine receptor 7 (Homo sapiens, UniProt P34969); assay: Displacement of [3H]5CT from human cloned 5HT7B receptor expressed in HEK293 cells; type: cell-based
Sequence (P34969 whole entry): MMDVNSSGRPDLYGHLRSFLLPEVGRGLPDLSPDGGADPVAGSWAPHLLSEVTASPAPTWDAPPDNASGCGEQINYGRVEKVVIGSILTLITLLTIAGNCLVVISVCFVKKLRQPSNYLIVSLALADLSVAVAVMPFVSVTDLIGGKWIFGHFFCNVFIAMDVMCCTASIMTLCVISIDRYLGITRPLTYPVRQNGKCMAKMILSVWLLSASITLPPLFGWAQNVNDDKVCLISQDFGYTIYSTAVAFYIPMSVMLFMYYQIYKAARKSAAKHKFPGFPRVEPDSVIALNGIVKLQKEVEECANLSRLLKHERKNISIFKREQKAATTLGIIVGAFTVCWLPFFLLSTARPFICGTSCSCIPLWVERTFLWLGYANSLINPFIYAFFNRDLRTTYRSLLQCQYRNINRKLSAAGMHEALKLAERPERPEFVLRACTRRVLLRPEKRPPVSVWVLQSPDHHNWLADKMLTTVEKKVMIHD

Structure (SMILES) | Ki [nM]
COc1ccccc1-c1ccccc1OCCN(C)C | 669
COc1cccc(OC)c1-c1cccc2c1OC[C@H](N(C)C)C2 | 2.55
Cc1cccc(C)c1-c1cccc(OCCN(C)C)n1 | 1610
COc1cccc(OC)c1-c1ccnc(CCN(C)C)n1 | 1480
CN(C)CCc1nncc(-c2ccccc2)n1 | > 10000
CN(C)CCOc1ccccc1-c1ccccc1 | 156
Cc1cccc(C)c1-c1cnnc(CCN(C)C)n1 | > 10000
CCCN(CCC)[C@H]1CCc2c(cccc2-c2ccccc2)C1 | 2.91
CCCN(CCC)[C@H]1CCc2c(cccc2-c2cccc3ccccc23)C1 | 0.3
Cc1cccc(C)c1-c1ccc2c(c1)C[C@H](N(C)C)CO2 | 13.4
CCCN(CCC)[C@H]1COc2c(cccc2-c2ccccc2)C1 | 3.38
CN(C)CCOc1ccccc1Br | 2660
COc1cccc(OC)c1-c1cnnc(CCN(C)C)n1 | > 10000

Next, values leading:

Ki [nM] | Structure (SMILES)
26 | CN(C)CCSc1cccc(-c2ccoc2)n1
37 | CN(C)CCSc1cccc(Br)n1
1430 | Cc1cccc(C)c1-c1ccccc1SCCN(C)C
4110 | CN(C)CCSc1ccccc1Br
128 | Cc1cccc(C)c1-c1cccc(SCCN(C)C)n1
553 | CN(C)CCSc1ccccc1-c1ccccc1

target: T1, 5-hydroxytryptamine receptor 1A (Rattus norvegicus, UniProt P19327); assay: Displacement of [3H]8-OH-DPAT from 5HT1A receptor in rat hippocampus; type: tissue-based
T1 sequence (P19327 whole entry): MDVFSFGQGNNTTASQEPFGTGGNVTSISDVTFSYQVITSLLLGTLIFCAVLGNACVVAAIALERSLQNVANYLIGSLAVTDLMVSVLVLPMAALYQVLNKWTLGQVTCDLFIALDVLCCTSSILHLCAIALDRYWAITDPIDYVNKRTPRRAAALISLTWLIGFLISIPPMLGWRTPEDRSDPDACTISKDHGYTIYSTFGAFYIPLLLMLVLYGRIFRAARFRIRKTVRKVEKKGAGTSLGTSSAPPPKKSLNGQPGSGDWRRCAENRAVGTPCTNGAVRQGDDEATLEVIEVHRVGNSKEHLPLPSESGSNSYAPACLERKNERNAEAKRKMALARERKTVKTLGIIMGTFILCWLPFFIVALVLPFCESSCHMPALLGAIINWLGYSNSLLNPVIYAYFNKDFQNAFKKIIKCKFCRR

Structure (SMILES) | Ki [nM]
Cc1cccc(C)c1-c1cccc(OCCN(C)C)n1 | 7220
CN(C)CCOc1cccc(Br)n1 | 902

The next lines start with the values.

Ki [nM] | Structure (SMILES)
28 | CN(C)CCSc1cccc(-c2ccoc2)n1
133 | CN(C)CCSc1cccc(Br)n1
676 | CN(C)CCSc1cccc(Br)c1
43 | CN(C)CCSc1cccc(-c2ccccc2)n1
927 | Cc1cccc(C)c1-c1cccc(SCCN(C)C)n1
2350 | Cc1cccc(C)c1-c1cccc(SCCN(C)C)c1
516 | CN(C)CCSc1cccc(-c2ccccc2)c1

Reference: ChEMBL document CHEMBL1157560, “SAR studies on new bis-aryls 5-HT7 ligands: Synthesis and molecular modeling” (Bioorg Med Chem, 2010)
